Measured values taken from patent publication US11414385B2, “Compounds and methods for treating, detecting, and identifying compounds to treat apicomplexan parasitic diseases” (The University of Chicago, priority 2015, dated 2022).
Read-outs that look alike come from different tables or passages of the source. One block for each compound: values may come before it.

How the values were obtained:
[1] = test system: T. gondii tachyzoites (RH-YFP strain); experiment: In vitro challenge assay for Toxoplasma tachyzoites (RH-YFP in HFF, fluorescence); format: cell-based, Toxoplasma gondii; conditions: Toxoplasma gondii; RH-YFP; read-out: Tachy IC50
Description: Human foreskin fibroblasts (HFF) were cultured on a flat, clear-bottomed, black 96-well plate to 90% to 100% confluence. IMDM (1×, [+] glutamine, [+] 25 mM HEPES, [+] Phenol red, 10% FBS [gibco, Denmark]) was removed from each well and replaced with IMDM-C (1×, [+] glutamine, [+] 25 mM HEPES, [−] Phenol red, 10% FBS)[Gibco, Denmark]). Type I RH parasites expressing Yellow Fluorescent Protein (RH-YFP) were lysed from host cells by double passage through a 27-gauge needle. Parasites were counted and diluted to 32,000/mL in IMDM-C. Fibroblast cultures were infected with 3200 tachyzoites of the Type I RH-YFP strain and returned to incubator at 37° C. for 1-2 hours to allow for infection. Diluted solutions of the compounds were made using IMDM-C, and 20 μl were added to each designated well, with triplicates for each condition. Controls included pyrimethamine/sulfadiazine (current standard of treatment), DMSO only, fibroblast only, and an untreated YFP gradient with 2 fold dilutions of the parasite. Cells were incubated at 37° C. for 72 hours. The plates were read using a fluorimeter (Synergy H4 Hybrid Reader, BioTek) To ascertain the amount of yellow fluorescent protein, in relative fluorescence units (RFU), as a measure of parasite burden after treatment. Compounds were not considered effective or pursued for further analysis if there were no signs of inhibition at 1 μM. Data was collected using Gen5 software and analyzed with Excel.
Protocol adapted from Fomovska, et. al. (18,19). Human foreskin fibroblasts (HFF) were cultured on a flat, clear-bottomed, black 96-well plate to 90% to 100% confluence. IMDM (1×, [+] glutamine, [+] 25 mM HEPES, [+] Phenol red, 10% FBS [gibco, Denmark]) was removed from each well and replaced with IMDM-C (1×, [+] glutamine, [+] 25 mM HEPES, [−] Phenol red, 10% FBS)[gibco, Denmark]). Type I RH parasites expressing Yellow Fluorescent Protein (RH-YFP) were lysed from host cells by double passage through a 27-gauge needle. Parasites were counted and diluted to 32,000/mL in IMDM-C. Fibroblast cultures were infected with 3200 tachyzoites of the Type I RH strain expressing Yellow Fluorescent Protein (RH-YFP) and returned to incubator at 37° C. for 1-2 hours to allow for infection (15). Various concentrations of the compounds were made using IMDM-C, and 20 μl were added to each designated well, with triplicates for each condition. Controls included pyrimethamine/sulfadiazine (current standard of treatment), 0.1% DMSO only, fibroblast only, and an untreated YFP gradient with 2 fold dilutions of the parasite. Cells were incubated at 37° C. for 72 hours. Plates were read using a fluorimeter (Synergy H4 Hybrid Reader, BioTek) to ascertain the amount of yellow fluorescent protein, in relative fluorescence units (RFU), as a measure of parasite burden after treatment. Data was collected using Gen5 software. IC50 was calculated by graphical analysis in Excel.
An initial screening assay of 10 μM, 1 μM, 100 nM, and 10 nM was performed. Compounds were not considered effective or pursued for further analysis if there were no signs of inhibition of tachyzoites at 1 μM. If compounds did appear to be effective at 1 μM, another experiment was conducted to assess effect at 1 μM, 500 nM, 250 nM, 125 nM, 62.5 nM, and 31.25 nM.
Protocol adapted from Fomovska, et. al. (Fomovska A, Huang Q, El Bissati K, Mui E J, Witola W H, Cheng G, et al. Novel N-Benzoyl-2-Hydroxybenzamide Disrupts Unique Parasite Secretory Pathway. Antimicrob Agents Chemother [Internet]. 2012 May [cited 2015 Jul. 8]; 56(5):2666-82; Fomovska A, Wood R D, Mui E, Dubey J P, Ferreira L R, Hickman M R, et al. Salicylanilide inhibitors of Toxoplasma gondii. J Med Chem. 2012 Oct. 11; 55(19):8375-91.). Human foreskin fibroblasts (HFF) were cultured on a flat, clear-bottomed, black 96-well plate to 90% to 100% confluence. […]

[2] = test system: P. falciparum strains D6, TM91-C235, W2, C2B; experiment: Malaria SYBR Green I-Based Fluorescence (MSF) Assay; format: cell-based, Plasmodium falciparum
Description: Testing of P. falciparum: D6 is a drug sensitive strain from Sierra Leone, C235 is a multi-drug resistant strain from Thailand, W2 is a chloroquine resistant strain from Thailand, and C2B has resistance to a variety of drugs including atovaquone.
D6 is a drug sensitive strain from Sierra Leone, C235 is a multi-drug resistant strain from Thailand, W2 is a chloroquine resistant strain from Thailand, and C2B has resistance to a variety of drugs including atovaquone. These assays were performed as described.
(§1) Compound activity against P. falciparum, a causative agent of malaria, was tested using the Malaria SYBR Green I—Based Fluorescence (MSF) Assay. This; microtiter plate drug sensitivity assay uses the presence of malarial DNA as a measure of parasitic proliferation in the presence of antimalarial drugs or experimental compounds based on modifications of previously described methods by Plouffe et al (20) and Johnson et al. As the intercalation of SYBR Green I dye and its resulting fluorescence is relative to parasite growth, a test compound that inhibits the growth of the parasite will result in a lower fluorescence.
Selected compounds were examined for activity against four strains of P. falciparum: D6 (CDC/Sierra Leone), a drug-sensitive strain readily killed by chloroquine, TM91-C235, a multi-drug resistant strain resistant to chloroquine, W2, a chloroquine resistant strain from Thailand, and C2B has resistance to a variety of drugs including atovaquone.
D6 is a drug sensitive strain from Sierra Leone, C235 is a multi-drug resistant strain from Thailand, W2 is a chloroquine resistant strain from Thailand, and C2B has resistance to a variety of drugs including atovaquone. These assays were performed using standard protocols.
as §1, with “known in the art.” for “by Plouffe et al (20) and Johnson et al.”, “fluorescence. Selected compounds were examined for activity against four strains of P. falciparum: D6 (CDC/Sierra Leone), a drugsensitive strain readily killed by chloroquine, TM91-C235, a multi-drug resistant strain resistant to chloroquine, W2, a chloroquine resistant strain from Thailand, and C2B has resistance to a variety of drugs including atovaquone.” for “fluorescence.”

[3] = Plasmodium falciparum, C2B strain, read-out: SYBR Green C2B IC50
[4] = Plasmodium falciparum, D6 strain, read-out: Pf D6 IC50
[5] = Plasmodium falciparum, D6 strain, read-out: SYBR Green D6 IC50
[6] = Plasmodium falciparum, TM91C235 strain, read-out: SYBR Green C235 IC50
[7] = Plasmodium falciparum, W2 strain, read-out: SYBR Green W2 IC50

Structure (SMILES): Cc1[nH]c2c(c(=O)c1-c1ccc(Oc3cccc(OC(F)(F)F)c3)cc1)CCCC2 [AS006/ JAG143, 2-methyl-3-(4 (3-(trifluoromethoxy)phenoxy)phenyl)-5,6,7,8-tetrahydroquinolin-4(1H)-one]
IC50 [1]: 60 to 80 nM

Structure (SMILES): Cc1[nH]c2c(c(=O)c1-c1ccc(Oc3cccc(C(F)(F)F)c3)cc1)CCCC2 [AS012/ JAG144, 2-methyl-3-(4-(3-(trifluoromethyl)phenoxy)phenyl)-5,6,7,8-tetrahydroquinolin-4(1H)-one]
IC50 [1]: 300 nM

Structure (SMILES): Cc1[nH]c2c(c(=O)c1-c1ccc(Oc3ccc(F)c(Cl)c3)cc1)CCCC2 [AS021/ JAG145, 3-[4-(3-chloro-4-fluorophenoxy)phenyl]-2-methyl-5,6,7,8-tetrahydro-1H-quinolin-4-one]
IC50 [1]: 80 nM

Structure (SMILES): Cc1[nH]c2c(c(=O)c1-c1ccc(Oc3cc(Cl)cc(Cl)c3)cc1)CCCC2 [AS022, 3-[4-(3,5-dichlorophenoxy)phenyl]-2-methyl-5,6,7,8-tetrahydro-1H-quinolin-4(1H)-one]
IC50 [1]: 20 to 40 nM

Structure (SMILES): Cc1[nH]c2c(c(=O)c1-c1ccc(Oc3ccc4c(c3)OCO4)cc1)CCCC2 [AS032, 3-[4-(2H-1,3-benzodioxo1-5-yloxy)phenyl]-2-methyl-5,6,7,8-tetrahydro-1H-quinolin-4-one]
IC50 [1]: 100 to 300 nM

Structure (SMILES): Cc1[nH]c2c(c(=O)c1-c1ccc(Oc3cc(Cl)nc(Cl)c3)cc1)CCCC2 [AS034/ JAG148, 3-{4-[(2,6-dichloropyridin-4-yl)oxy]phenyl}-2-methyl-5,6,7,8-tetrahydro-1H-quinolin-4-one]
IC50 [1]: 100 to 500 nM

Structure (SMILES): Cc1c(-c2ccc(Oc3ccc(OC(F)(F)F)cc3)cc2)c(=O)c2c(n1C)CCCC2 [JAG023, 1,2-dimethyl-3-(4-(4-(trifluoromethoxy)phenoxy)phenyl)-5,6,7,8-tetrahydroquinolin-4(1H)-one]
IC50 [1]: 1000 nM

IC50 [2, 3]: > 20 µM
IC50 [2, 4]: 9.6 µM
IC50 [2, 5]: 9.6 µM
IC50 [2, 6]: > 20 µM
IC50 [2, 7]: > 20 µM
Structure (SMILES): Cc1[nH]c2c(c(=O)c1-c1ccc(Oc3ccc(C(=O)O)cc3)nc1)CCCC2 [JAG039, 4-((5-(2-methyl-4-oxo-1,4,5,6,7,8-hexahydroquinolin-3-yl)pyridin-2-yl)oxy)benzoic acid]

IC50 [2, 4]: 6.72 µM
Structure (SMILES): Cc1[nH]c2c(c(=O)c1-c1ccc(Oc3ccc(C(=O)O)cc3)cc1)CCCC2 [JAG046, 4-(4-(2-methyl-4-oxo-1,4,5,6,7,8-hexahydroquinolin-3-yl)phenoxy)benzoic acid]

IC50 [2, 4]: 3.75 µM
Structure (SMILES): Cc1[nH]c2c(c(=O)c1-c1ccc(Oc3cccc(C(=O)O)c3)cc1)CCCC2 [JAG047, 3-(4-(2-methyl-4-oxo-1,4,5,6,7,8-hexahydroquinolin-3-yl)phenoxy)benzoic acid]

Structure (SMILES): Cc1[nH]c2c(c(=O)c1-c1ccc(Oc3ccc(F)cc3)cc1)CCCC2 [JAG58, 3-(4-(4-fluorophenoxy)phenyl)-2-methyl-5,6,7,8-tetrahydroquinolin-4(1H)-one]
IC50 [1]: 40 to 80 nM

Structure (SMILES): Cc1[nH]c2c(c(=O)c1-c1ccc(Oc3ccc(C(F)(F)F)cc3)cc1)CCCC2 [JAG63, 2-methyl-3-(4-(4-(trifluoromethyl)phenoxy)phenyl)-5,6,7,8-tetrahydroquinolin-4(1H)-one]
IC50 [1]: 100 to 300 nM

Structure (SMILES): Cc1[nH]c2c(c(=O)c1-c1ccc(Oc3cccc(F)c3)cc1)CCCC2 [JAG069, 3-(4-(3-Fluorophenoxy)phenyl)-2-methyl-5,6,7,8-tetrahydroquinolin-4(1H)-one]
IC50 [1]: 20 nM

Structure (SMILES): Cc1[nH]c2c(c(=O)c1-c1ccc(Oc3ccc(Cl)c(Cl)c3)cc1)CCCC2 [JAG084, 3-(4-(3,4-Dichlorophenoxy)phenyl)-2-methyl-5,6,7,8-tetrahydroquinolin-4(1H)-one]
IC50 [1]: 40 to 80 nM

Structure (SMILES): O=C(O)c1[nH]c2c(c(=O)c1-c1ccc(Oc3ccc(OC(F)(F)F)cc3)cc1)CCCC2 [JAG091, 3(4-(4-Trifluoromethoxyphenoxy)phenyl)-2-(carboxylate)-5,6,7,8-tetrahydroquinolin-4(1H)-one]
IC50 [1]: > 1000 nM

Structure (SMILES): O=c1[nH]c2c(c(=O)n1-c1ccc(Oc3ccccc3)cc1)CCCC2 [JAG095, 3-(4-Phenonxyphenyl)-1,2,3,4,5,6,7,8-octahydroquinazoline-2,4,dione]
IC50 [1]: > 10000 nM

Structure (SMILES): Cc1[nH]c2c(c(=O)c1-c1ccc(Oc3ccc(OC(F)(F)F)cc3)cc1)CC(C)CC2 (centres unmarked) [JAG106, 3(4-(4-Trifluoromethoxyphenoxy)phenyl)-2,6-dimethyl-5,6,7,8-tetrahydroquinolin-4(1H)-one]
IC50 [1]: ~1000 nM

Structure (SMILES): Cc1[nH]c2c(c(=O)c1-c1ccc(Oc3ccc(OC(F)(F)F)cc3)cc1)CCC(C)C2 (centres unmarked) [JAG107, 3(4-(4-Trifluoromethoxyphenoxy)phenyl)-2,7-dimethyl-5,6,7,8-tetrahydroquinolin-4(1H)-one]
IC50 [1]: 1000 nM

IC50 [2, 3]: 6.75 µM
IC50 [2, 5]: 0.88 µM
IC50 [2, 6]: 4.48 µM
IC50 [2, 7]: 5.36 µM
Structure (SMILES): CCn1c(C)c(-c2ccc(Oc3ccccc3)cc2)c(=O)c2ccccc21 [JM10, 1-ethyl-2-methyl-3-(4-phenoxyphenyl)quinolin-4(1H)-one]

IC50 [2, 3]: 0.01 µM
IC50 [2, 5]: 0.03 µM
IC50 [2, 6]: 0.07 µM
IC50 [2, 7]: 0.08 µM
Structure (SMILES): Cc1[nH]c2ccccc2c(=O)c1-c1ccc(Oc2ccccc2)cc1 [MJM129, 2-methyl-3-(4-phenoxyphenyl)quinolin-4(1H)-one]

IC50 ([2]; D6 strain, read-out: SYBR Green D6 IC50): 2.88 µM
IC50 [2, 3]: > 20 µM
IC50 [2, 5]: 2.84 µM
IC50 [2, 6]: 13.7 µM
IC50 [2, 7]: 9.25 µM
Structure (SMILES): Cc1[nH]c2ccccc2c(=O)c1-c1ccc(Oc2ccc(Cl)cc2)c(O)c1 [RG38, 3-(4-(4-chlorophenoxy)-3-hydroxyphenyl)-2-methylquinolin-4(1H)-one]
